Data reported in patent publication US20230073183A1, “IMPROVED URICASE AND METHOD FOR TREATING HYPERURICEMIA USING SAME” (SHANGHAI JUNSHI BIOSCIENCES CO., LTD., priority 2019, published 2023).
Where a chain is given by its changes, count along the chain named. In names and notes the source's numbering stands.

T1: Micrococcus uricase variant AG-2C12-PEG (S142C/E216C in AG-00-1, SEQ ID NO: 3; PEGylated) (Arthrobacter globiformis, UniProt D0VWQ1, E216C/S142C)
T1 construct: purified
T1 sequence (D0VWQ1 1-297 S142C/E216C): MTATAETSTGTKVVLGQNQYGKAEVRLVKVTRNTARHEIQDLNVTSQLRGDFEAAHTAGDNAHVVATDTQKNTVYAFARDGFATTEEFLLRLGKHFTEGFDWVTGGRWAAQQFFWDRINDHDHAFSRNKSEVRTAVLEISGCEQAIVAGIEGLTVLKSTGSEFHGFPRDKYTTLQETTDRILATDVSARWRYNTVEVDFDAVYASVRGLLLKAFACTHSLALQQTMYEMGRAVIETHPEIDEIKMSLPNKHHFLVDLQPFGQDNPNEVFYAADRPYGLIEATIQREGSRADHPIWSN

T2: Micrococcus uricase variant AG-2C13-PEG (A35C/S288C in AG-00-1, SEQ ID NO: 3; PEGylated) (Arthrobacter globiformis, UniProt D0VWQ1, A35C/S288C)
T2 construct: purified
T2 sequence (D0VWQ1 1-297 A35C/S288C): T1 sequence (D0VWQ1 1-297 S142C/E216C) with A35C, C142S, C216E, S288C

T3: Micrococcus uricase variant AG-2C01-2-PEG (A35C/T194C in AG-00-1, SEQ ID NO: 3; PEGylated) (Arthrobacter globiformis, UniProt D0VWQ1, A35C/T194C)
T3 construct: purified
T3 sequence (D0VWQ1 1-297 A35C/T194C): T1 sequence (D0VWQ1 1-297 S142C/E216C) with A35C, C142S, T194C, C216E

T4: reference uricase MEDI4945 (SEQ ID NO: 2) (Arthrobacter globiformis, UniProt D0VWQ1, N33C/R49S/T11C)
T4 sequence (D0VWQ1 with tags, fused parts or gaps T11C/N33C/R49S): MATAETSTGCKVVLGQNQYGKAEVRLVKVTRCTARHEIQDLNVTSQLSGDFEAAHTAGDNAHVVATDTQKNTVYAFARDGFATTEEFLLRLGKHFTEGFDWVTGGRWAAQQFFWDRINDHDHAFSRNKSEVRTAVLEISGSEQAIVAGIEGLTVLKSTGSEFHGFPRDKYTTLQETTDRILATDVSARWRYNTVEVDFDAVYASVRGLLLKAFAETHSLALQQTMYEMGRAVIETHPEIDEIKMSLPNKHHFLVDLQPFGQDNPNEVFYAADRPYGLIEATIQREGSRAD

B1: reference uricase MEDI4945 (SEQ ID NO: 2) (Arthrobacter globiformis; N33C/R49S/T11C) (protein)
chain: T4 sequence (D0VWQ1 with tags, fused parts or gaps T11C/N33C/R49S)

Tests used:
Type in all cases: biochemical
[1] = molecular target: T1, Micrococcus uricase variant AG-2C12-PEG (S142C/E216C in AG-00-1, SEQ ID NO: 3; PEGylated); test: Enzyme activity kinetic study of PEGylated uricase with uric acid; conditions: Tris-HCl pH 8.5, 37° C.; turnover number, substrate converted within one second
Experimental: (§1) By using a method similar to that in Example 1 to introduce Cys mutations, the following molecules were prepared: AG-2C12, AG-2C13, AG-2C16, AG-2C17, AG-1C13-1, AG-2C01, AG-2C05-1, AG-2C01-1 and AG-2C12-1.
(§2) To 2 mg of a uricase (100 mM PBS buffer, pH=7.0, 150 mM NaCl) were sequentially added TCEP.HCl (0.5 mg, tris(2-carboxyethyl)phosphine hydrochloride) and M-MAL-PEG-10K (27.5 mg, maleimide polyethylene glycol, molecular weight of 10,000 Da). The mixture was allowed to react at room temperature for 2 h. The reaction mixture was purified by ion-exchange chromatography to obtain a PEGylated uricase.
(§3) The Cys mutation sites selected above were paired for PEGylation modification and uricase activity evaluation.
(§4) A. Enzyme Activity Kinetic Study of PEGylated […]
(§5) Tris-HCl buffer system (pH 8.5) was used. The stock solution for uricase working solutions was 2 mM uric acid, which was stored at 4° C. Process of enzyme activity assay:
(§6) The temperature was set at 37° C.
(§7) Substrate (uric acid) concentration gradients: 600 μmol, 500 μmol, 400 μmol, 200 μmol, 100 μmol, 50 μmol, 25 μmol, and 12.5 μmol.
(§8) 50 μL of the above uric acid solution and 30 μL of the above Tris-HCl buffer were first added to a 96-well plate and incubated at 37° C. for 20 min. Then 20 μL of an appropriately diluted uricase solution (0.004 mg/mL) was rapidly added to the 96-well plate. Procedure setting: reaction for 10 min, one data reading every 20 s, and initiation of reaction.

[2] = molecular target: T2, Micrococcus uricase variant AG-2C13-PEG (A35C/S288C in AG-00-1, SEQ ID NO: 3; PEGylated); test: as above; conditions: Tris-HCl pH 8.5, 37° C.; turnover number, substrate converted within one second
Experimental: as §1, §2, §3, §4, §5, §6, §7, §8

[3] = molecular target: T3, Micrococcus uricase variant AG-2C01-2-PEG (A35C/T194C in AG-00-1, SEQ ID NO: 3; PEGylated); test: as above; conditions: Tris-HCl pH 8.5, 37° C.; turnover number, substrate converted within one second
Experimental: as §1, §2, §3, §4, §5, §6, §7, §8

[4] = molecular target: T4, reference uricase MEDI4945 (SEQ ID NO: 2); test: Enzyme activity kinetic study of reference uricase with uric acid; conditions: Tris-HCl pH 8.5, 37° C.; turnover number, substrate converted within one second
Experimental: (§9) A reference uricase MEDI4945 was synthesized using a method similar to that described above, having an amino acid sequence of SEQ ID NO: 2. MEDI4945 is the uricase disclosed in International Application No. PCT/US2016/032415, having an amino acid sequence shown below:
as §4, §5, §6, §7, §8

[5] = substrate: O=c1[nH]c(=O)c2[nH]c(=O)[nH]c2[nH]1; test: as above; conditions: other: Tris-HCl pH 8.5, 37° C., uric acid 12.5-600 μmol
Experimental: as §9, §4, §5, §6, §7, §8

Molecule | Kcat [1] | Kcat [2] | Kcat [3] | Kcat [4] | Km [5] [µM]
O=c1[nH]c(=O)c2[nH]c(=O)[nH]c2[nH]1 [uric acid] | 5.3 | 3.6 | 5.4 | 2.6 | –
B1 | – | – | – | – | 101
